Experiments:
[1] = system: NMRI mice; experiment: Mouse Forced Swim Test (mFST); format: in vivo; settings: compound alone, 0.3, 1, 3, 10 mg/kg s.c., 30 minutes pre-treatment
Description: The Forced Swim Test therefore is considered predictive of a potential antidepressant pharmacological effect.
Female NMRI mice (of 20-25 g) are habituated to the laboratory (a 12 hour light/dark cycle) for at least 16 hours before the experiment.
30 minutes after s.c. injection of either vehicle or drug, the mouse is placed in a glass beaker (d=16 cm; 5000 ml) with water (24° C.) up till 10 cm from the top edge. For the subsequent 6 minutes the duration of immobility defined as swim speed less than 2.5 cm/minute, and forced swim distance defined as distance swum with a speed above 5 cm/minute, is recorded. There are 8 mice in each group.
The activity of the mouse is tracked by the View Point system for the measurement of distance, immobility, and speed.
Time of immobility ±SEM (seconds) and forced swim distance ±SEM (cm) in 15 seconds time intervals are presented and plotted in SigmaPlot. Mean total immobility time and total swim distance in the time interval 60-360 seconds are calculated and presented for each group. The dose showing significant difference from the vehicle treated group is reported as the Minimal Effective Dose (MED s.c. mg/kg).

[2] = system: NMRI mice; settings: systemic administration; mice in a small water pool; background statement; cited from earlier work

Compound	melting point	also measured
Clc1cncc(N2CCNCC2)c1.O=C(O)/C=C/C(=O)O	195 to 196 °C	
Ic1ccc(N2CCNCC2)nn1.O=C(O)/C=C/C(=O)O	187 to 190 °C	
O=C(O)/C=C/C(=O)O.c1ccc2c(c1)ncn2-c1ccc(N2CCNCC2)nn1	217 °C	
CN1C2CCC1CN(c1ccccc1)CC2.O=C(O)/C=C/C(=O)O (racemic)	143.9 °C	
Cl.Cl.Clc1ccc(N2CCNCC2)cn1 [Compound 1C3, 1-(6-Chloro-3-pyridyl)-piperazine Dihydrochloric Acid Salt]		forced swimming [1]: did not affect forced swimming
CNCCCN1c2ccccc2CCc2ccccc21 [Desipramine]		forced swim distance [2]: induces an increase in the forced swim distance
